Measurements as given in patent US20160074338A1, “FOOD COMPOSITION FOR PREVENTING OBESITY, PHARMACEUTICAL COMPOSITION FOR TREATING OBESITY, AND ANIMAL MEDICINE FOR TREATING OBESITY, CONTAINING GINGERNONE A” (SNU R&DB Foundation, priority 2011, published 2016).

Tests used:
Format in all cases: cell-based
3T3-L1 cells [1] = assay: Oil red O staining of fat accumulation in MDI-differentiated 3T3-L1 cells; conditions: 10, 20 and 40 μM, 6 days, dependent on concentration
Protocol: In Experimental Example 3, to analyze the suppressive effects of gingerenone A on fat accumulation, oil red 0 staining was performed after inducing differentiation of the pre-adipocytes (K. Tobe et al., FEBS Lett, 215(2):345-9, 1987).
The 3T3-L1 cells (ATCC, Gaithersburg, Md.), representing pre-adipocytes, were plated into 24-well plates. The plated 3T3-L1 cell line was cultured in DMEM (Dulbecco-modified Eagle medium, WELGENE) with 10% FBS (fetal bovine serum) and 10 ml/L of antibiotic-antimycotic agent at 37° C. in a 5% CO2 incubator (MCO-15AC, SANYO E&E, Europe) until the cells reached 100% confluence.
When the 3T3-L1 cells reached 100% confluence, the cells were further cultured for 2 days in DMEM medium, in which MDI was added, with 10 ml/L of antibiotic-antimycotic agent and 10% fetal bovine serum (FBS). The media was replaced with DMEM containing 10 ml/L of insulin, 10% FBS and 10 ml/L of antibiotic-antimycotic agent for another 2 days. Thereafter, the media was changed to DMEM medium only comprising 10 ml/L of antibiotic-antimycotic agent and 10% FBS. […]
When 3T3-L1 cells were differentiated in the presence of MDI, gingerenone A was added at concentrations of 10, 20 and 40 μM to the cell culture media every third day from the day of MDI addition. […] The concentration was measured at a wavelength of 515 nm using an absorbance reader.

C/EBPα = assay: Western blotting of C/EBPα protein expression in differentiating 3T3-L1 cells; conditions: MDI-differentiated 3T3-L1 cells; for C/EBPα expression level: 40 μM, FIG. 5 comparison
Protocol: (§1) In Experimental Example 4, it was confirmed by Western blotting that gingerenone A affects important transcriptional factors, C/EBPα and PPARγ, and FAS protein expressed by a transcriptional factor thereof, expressed upon fat cell differentiation (B. L. Upham et al., Carcinogenesis. 18:37-42, 1997).
(§2) Post-confluent 3T3-L1 cells were cultured in DMEM supplemented with MDI, 10% FBS and 10 ml/L of antibiotic-antimycotic agent. In this media, we additionally treated with or without gingerenone A (10, 20 and 40 μM) for 2 days. For the next 2 to 4 days, the cells were further cultured. Here, the culture media was prepared by adding gingerenone A at concentrations of 10, 20 and 40 μM to DMEM media comprising insulin, 10% FBS and 1% antibiotic-antimycotic agent. For the next 4 to 6 days, the cells were further cultured in media comprising 10% FBS, 1% antibiotic-antimycotic agent and gingerenone A. Here, gingerenone A was added at concentrations of 10, 20 and 40 μM to the DMEM media. To extract protein from the cultured cells, after washing two times with cold PBS (phosphate buffered saline), the cells were lysed with a protein extraction solution. The protein extraction solution was RIPA buffer (50 mM, Tris pH 8.0, 150 mM NaCl, 1% NP-40, 5 mM EDTA and 1 mM PMSF) comprising 0.5% protease inhibitor (SIGMA-ALDRICH) and 0.5% phosphatase inhibitor (250 mM sodium fluoride, 5 mM sodium orthovanadate, 50 mM sodium pyrophosphate and 50 mM glycerophosphate). The cell lysates were centrifuged at 4° C. for 20 minutes at a rate of 12000 rpm. Supernatant formed by centrifugation was transferred to new 1.5 mL Eppendorf tubes. The protein content of the supernatants was determined using a DC assay kit (Bio-Rad Corp., Richmond, Calif., USA). The DC assay kit uses BSA (bovine serum albumin) as a standard solution. After mixing 20 to 50 μg of the protein with a sample buffer comprising bromophenol blue and denaturing the protein at 100° C. for 5 minutes, the denatured proteins were separated on a 12% SDS-polyacrylamide gel. […]

PPARγ = assay: Western blotting of PPARγ protein expression in differentiating 3T3-L1 cells; conditions: MDI-differentiated 3T3-L1 cells
Protocol: as §1
Post-confluent 3T3-L1 cells were cultured in DMEM supplemented with MDI, 10% FBS and 10 ml/L of antibiotic-antimycotic agent. In this media, we additionally treated with or without gingerenone A (10, 20 and 40 μM) for 2 days. For the next 2 to 4 days, the cells were further cultured. Here, the culture media was prepared by adding gingerenone A at concentrations of 10, 20 and 40 μM to DMEM media comprising insulin, 10% FBS and 1% antibiotic-antimycotic agent. For the next 4 to 6 days, the cells were further cultured in media comprising 10% FBS, 1% antibiotic-antimycotic agent and gingerenone A. Here, gingerenone A was added at concentrations of 10, 20 and 40 μM to the DMEM media. To extract protein from the cultured cells, after washing two times with cold PBS (phosphate buffered saline), the cells were lysed with a protein extraction solution. […] The protein content of the supernatants was determined using a DC assay kit (Bio-Rad Corp., Richmond, Calif., USA). […]

[2] = test system: FAS (fatty acid synthase); assay: Western blotting of FAS protein expression in differentiating 3T3-L1 cells; conditions: MDI-differentiated 3T3-L1 cells; for FAS expression level: 40 μM, FIG. 5 comparison
Protocol: as §1, §2

3T3-L1 cells [3] = assay: MTT analysis of viability of 3T3-L1 cells
Protocol: In Experimental Example 2, in order to measure the toxicity of 3T3-L1 cells in the presence of varying concentrations of gingerenone A, MTT3-(4,5-Dimethylthiazol-2-yl)-2,5diphenyltetrazolium bromide) analysis was conducted.
First, after plating 3T3-L1 cells into 96 well plates, the cells were cultured until the 3T3-L1 cells became confluent. Thereafter, the 3T3-L1 cells were treated with gingerenone A at concentrations of 10, 20 and 40 μM. After culturing for 24 and 48 hours, MTT was added to the cultured cells to a concentration of 0.5 mg/ml. The treated cells were cultured for 4 hours at 37° C. in a 5% CO2 incubator. Thereafter, the media was removed and 200 μl of DMSO (dimethylsulfoxide) was added to measure absorbance at a wavelength of 570 nm using an absorbance reader (Versa Max, Molecular Device, California, USA). Cell viability was determined as a percentage with respect to a control treated with only MDI (0.5 mM of isobutyl-methylxanthine, 1 μM of dexamethasone and 10 μg/ml of insulin).

Structure (SMILES)	cellular fat content (oil red O staining) (3T3-L1 cells [1])	C/EBPα expression level (C/EBPα)	C/EBPα protein expression level (C/EBPα; 10, 20 and 40 μM, FIG. 4)	PPARγ expression level (PPARγ; 40 μM, FIG. 5 comparison)	PPARγ protein expression level (PPARγ; 10, 20 and 40 μM, FIG. 4)	FAS expression level [2]	FAS protein expression level ([2]; 10, 20 and 40 μM, FIG. 4)	cytotoxicity (viability of 3T3-L1 cells) (3T3-L1 cells [3]; 40 μM, 24 and 48 hours after treatment)	cytotoxicity (MTT analysis) (3T3-L1 cells [3]; 3T3-L1 pre-adipocytes treated with 10, 20 and 40 μM)
COc1cc(CC/C=C/C(=O)CCc2ccc(O)c(OC)c2)ccc1O [gingerenone A]	decreased	considerably reduced	reduced	considerably reduced	reduced	considerably reduced	reduced	not observed	not observed
CCCCC[C@H](O)CC(=O)CCc1ccc(O)c(OC)c1 [gingerol, reference compound]		slightly reduced				slightly reduced			
